These results are taken from patent US9730914B2, “3,5-diaminopyrazole kinase inhibitors” (Axikin Pharmaceuticals, Inc., priority 2014, dated 2017).

Assay [1] has as its target T1, kinase domain protein of RC kinase (RCK) (Homo sapiens, UniProt Q56UN5).
T1 construct: made in house; host or cells: E. coli BL21-derived host (T7 phage) or HEK-293
T1 sequence (Q56UN5 1061-1324 limits assumed): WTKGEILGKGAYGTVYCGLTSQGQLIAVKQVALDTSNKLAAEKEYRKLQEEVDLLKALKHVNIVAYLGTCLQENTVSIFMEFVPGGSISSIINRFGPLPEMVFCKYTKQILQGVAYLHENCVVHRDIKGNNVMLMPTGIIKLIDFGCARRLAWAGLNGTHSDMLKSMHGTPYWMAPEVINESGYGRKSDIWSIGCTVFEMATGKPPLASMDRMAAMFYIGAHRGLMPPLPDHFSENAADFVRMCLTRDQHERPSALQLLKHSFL
In words: Kinase competition binding assay (Kd, qPCR readout), RC kinase. The conditions noted are these: Kd class, read-out: RCK Activity Level. As for the experimental part: (§1) For most assays, kinase-tagged T7 phage strains were prepared in an E. coli host derived from the BL21 strain. E. coli were grown to log-phase and infected with T7 phage and incubated with shaking at 32° C. until lysis. The lysates were centrifuged and filtered to remove cell debris. The remaining kinases were produced in HEK-293 cells and subsequently tagged with DNA for quantitative PCR (qPCR) detection.
(§2) Streptavidin-coated magnetic beads were treated with biotinylated small molecule ligands for 30 minutes at room temperature to generate affinity resins for kinase assays. The liganded beads were blocked with excess biotin and washed with blocking buffer (SeaBlock (Pierce), 1% BSA, 0.05% Tween 20, 1 mM DTT) to remove unbound ligand and to reduce nonspecific binding. Binding reactions were assembled by combining kinases, liganded affinity beads, and test compounds in 1× binding buffer (20% SeaBlock, 0.17×PBS, 0.05% Tween 20, 6 mM DTT). All reactions were performed in polystyrene 96-well plates in a final volume of 0.135 mL. The assay plates were incubated at room temperature with shaking for 1 hour and the affinity beads were washed with wash buffer (1×PBS, 0.05% Tween 20). The beads were then re-suspended in elution buffer (1×PBS, 0.05% Tween 20, 0.5 μM non-biotinylated affinity ligand) and incubated at room temperature with shaking for 30 minutes. The kinase concentration in the eluates was measured by qPCR.
(§3) An 11-point 3-fold serial dilution of each test compound was prepared in 100% DMSO at 100× final test concentration and subsequently diluted to 1× in the assay (final DMSO concentration=1%). Most Kd values were determined using a compound top concentration=30,000 nM. If the initial Kd determined was <0.5 nM, (the lowest concentration tested), the measurement was repeated with a serial dilution starting at a lower top concentration. A more detailed description of this assay may be found in Fabian, M. A. et al. Nat. Biotechnol. 2005, 23, 329-336, which is incorporated herein in its entirety.
(§4) The biological results of inhibition of the kinase domain protein of RC kinase (RCK) and JAK2 and JAK3 are summarized in Tables 2 and 3, wherein A represents a Kd of <50 nM; B represents 50 nM<Kd<100 nM; C represents 100 nM<Kd<1000 nM; and D represents a Kd>1000 nM.
On the technique in general: Real-time PCR tracks product formation cycle by cycle.

Assay [2] deals with T2, JAK2 (Homo sapiens, UniProt O60674).
T2 construct: made in house; host or cells: E. coli BL21-derived host (T7 phage) or HEK-293
In words: Kinase competition binding assay (Kd, qPCR readout), JAK2. Conditions: for Kd: Kd class, JAK2, read-out: JAK2 Activity Level; for RCK:JAK2 selectivity ratio: ratio Kd (JAK2): Kd(RCK). As for the experimental part:
as §1, §2, §3, §4
Additionally, RCK:JAK2 selectivity, as measured by the ratio Kd (JAK2): Kd(RCK) is represented as follows: A represents Kd (JAK2): Kd (RCK)>100; B represents 10<Kd(JAK2): Kd (RCK)<100; C represents 1<Kd (JAK2): Kd (RCK)<10; and D represents Kd(JAK2): Kd (RCK)<1.

In assay [3] the target is T3, JAK3 (Homo sapiens, UniProt P52333).
T3 construct: made in house; host or cells: E. coli BL21-derived host (T7 phage) or HEK-293
In words: Kinase competition binding assay (Kd, qPCR readout), JAK3. The conditions noted are these: for Kd: Kd class, JAK3, read-out: JAK3 Activity Level; for RCK:JAK3 selectivity ratio: ratio Kd (JAK3): Kd (RCK). How it is done:
as §1, §2, §3, §4
Similarly, RCK:JAK3 selectivity, as measured by the ratio Kd (JAK3): Kd (RCK) is represented as follows: A represents Kd (JAK3): Kd (RCK)>100; B represents 10<Kd (JAK3): Kd (RCK)<100; C represents 1<Kd (JAK3): Kd (RCK)<10; and D represents Kd (JAK3): Kd(RCK)<1.

Some results are limits rather than exact numbers.

T3 sequence (P52333 811-1124 limits assumed): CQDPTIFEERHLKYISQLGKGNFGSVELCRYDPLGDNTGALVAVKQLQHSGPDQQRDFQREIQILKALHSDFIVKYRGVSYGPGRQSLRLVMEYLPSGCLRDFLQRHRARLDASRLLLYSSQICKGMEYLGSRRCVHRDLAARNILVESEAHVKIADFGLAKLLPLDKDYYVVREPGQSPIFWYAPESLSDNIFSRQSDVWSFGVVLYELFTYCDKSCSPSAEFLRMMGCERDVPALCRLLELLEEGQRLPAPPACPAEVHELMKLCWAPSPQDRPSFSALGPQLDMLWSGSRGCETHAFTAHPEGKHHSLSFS
T2 sequence (O60674 840-1132 limits assumed): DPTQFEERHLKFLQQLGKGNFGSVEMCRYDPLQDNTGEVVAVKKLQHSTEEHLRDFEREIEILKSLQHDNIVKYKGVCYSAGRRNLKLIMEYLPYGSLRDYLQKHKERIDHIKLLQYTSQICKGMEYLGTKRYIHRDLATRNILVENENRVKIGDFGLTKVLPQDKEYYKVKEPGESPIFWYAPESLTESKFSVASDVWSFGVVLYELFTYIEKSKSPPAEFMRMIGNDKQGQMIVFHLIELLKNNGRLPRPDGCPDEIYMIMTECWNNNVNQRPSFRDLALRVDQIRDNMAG

For `Cc1cc(Nc2n[nH]c(NCc3ccc(O)cc3)c2C(N)=O)ccc1N1CCOCC1`, in assay [1], the Kd was less than 50 nM.
Consider `Cc1cc(CNc2[nH]nc(Nc3ccc(N4CCN(C(C)C)CC4)cc3)c2C(N)=O)cc(C)c1O` [Compound 1, 5-((4-hydroxy-3,5-dimethylbenzyl)amino)-3-((4-(4-isopropylpiperazin-1-yl)phenyl)amino)-1H-pyrazole-4-carboxamide], for which the Kd in assay [1] was less than 50 nM. Moreover, in assay [2], the Kd is 100 to 1000 nM and the “RCK:JAK2 selectivity ratio” value is reported as “A (A represents Kd (JAK2): Kd (RCK)>100)”. In addition, in assay [3], the Kd was 100 to 1000 nM and the “RCK:JAK3 selectivity ratio” value is listed as “A (A represents Kd (JAK3): Kd (RCK)>100)”.
Turning to `Cc1cc(CNc2[nH]nc(Nc3ccc(N4CCOCC4)c(Cl)c3)c2C(N)=O)cc(C)c1O` [Compound 2, 3-((3-chloro-4-morpholinophenyl)amino)-5-((4-hydroxy-3,5-dimethylbenzyl)amino)-1H-pyrazole-4-carboxamide], the Kd in assay [1] is less than 50 nM. Moreover, in assay [2], the Kd was in the range of 100 to 1000 nM and the “RCK:JAK2 selectivity ratio” value is reported as “B (B represents 10<Kd(JAK2): Kd (RCK)<100)”. Also, in assay [3], the Kd was more than 1000 nM and the “RCK:JAK3 selectivity ratio” value is “A (A represents Kd (JAK3): Kd (RCK)>100)”.
The corresponding values for `Cc1cc(CNc2[nH]nc(Nc3ccc(N4CCOCC4)cc3)c2C(N)=O)cc(C)c1O` [Compound 3, 5-((4-hydroxy-3,5-dimethylbenzyl)amino)-3-((4-morpholinophenyl)amino)-1H-pyrazole-4-carboxamide] are less than 50 nM, 100 to 1000 nM, “B (B represents 10<Kd(JAK2): Kd (RCK)<100)”, more than 1000 nM and “A (A represents Kd (JAK3): Kd (RCK)>100)”.
On to `Cc1cc(CNc2[nH]nc(Nc3ccc(N4C[C@@H](C)O[C@@H](C)C4)cc3)c2C(N)=O)cc(C)c1O` [Compound 4, 3-((4-(2,6-dimethylmorpholino)phenyl)amino)-5-((4-hydroxy-3,5-dimethylbenzyl)amino)-1H-pyrazole-4-carboxamide], for which the Kd in assay [1] fell in the range of 100 to 1000 nM. Also, in assay [2], the Kd is more than 1000 nM and the “RCK:JAK2 selectivity ratio” value is recorded as “B (B represents 10<Kd(JAK2): Kd (RCK)<100)”. In addition, in assay [3], the Kd is more than 1000 nM and the “RCK:JAK3 selectivity ratio” value is given as “B (B represents 10<Kd (JAK3): Kd (RCK)<100)”.
`Cc1cc(CNc2[nH]nc(Nc3cnc(N4CCOCC4)c(Cl)c3)c2C(N)=O)cc(C)c1O` [Compound 5, 3-((5-chloro-6-morpholinopyridin-3-yl)amino)-5-((4-hydroxy-3,5-dimethylbenzyl)amino)-1H-pyrazole-4-carboxamide]: the Kd in assay [1] was 100 to 1000 nM. In addition, in assay [2], the Kd is more than 1000 nM and the “RCK:JAK2 selectivity ratio” value is listed as “B (B represents 10<Kd(JAK2): Kd (RCK)<100)”. In addition, in assay [3], the Kd is more than 1000 nM and the “RCK:JAK3 selectivity ratio” value is “B (B represents 10<Kd (JAK3): Kd (RCK)<100)”.
Consider `Cc1cc(CNc2[nH]nc(Nc3ccc(-n4cccc4)cc3)c2C(N)=O)cc(C)c1O` [Compound 6, 3-((4-(1H-pyrrol-1-yl)phenyl)amino)-5-((4-hydroxy-3,5-dimethylbenzyl)amino)-1H-pyrazole-4-carboxamide], for which, in assay [1], the Kd was less than 50 nM. In addition, in assay [2], the Kd was more than 1000 nM and the “RCK:JAK2 selectivity ratio” value is reported as “A (A represents Kd (JAK2): Kd (RCK)>100)”. Moreover, in assay [3], the Kd is more than 1000 nM and the “RCK:JAK3 selectivity ratio” value was “A (A represents Kd (JAK3): Kd (RCK)>100)”.
As to `Cc1cc(CNc2[nH]nc(Nc3ccc(N4CCOCC4)nc3)c2C(N)=O)cc(C)c1O` [Compound 7, 5-((4-hydroxy-3,5-dimethylbenzyl)amino)-3-((6-morpholinopyridin-3-yl)amino)-1H-pyrazole-4-carboxamide], in assay [1], the Kd lay within 50 to 100 nM. Besides, in assay [2], the Kd was in the range of 100 to 1000 nM and the “RCK:JAK2 selectivity ratio” value is listed as “C (C represents 1<Kd (JAK2): Kd (RCK)<10)”. Besides, in assay [3], the Kd is more than 1000 nM and the “RCK:JAK3 selectivity ratio” value is “B (B represents 10<Kd (JAK3): Kd (RCK)<100)”.
The corresponding values for `Cc1cc(Nc2n[nH]c(NCc3cc(C)c(O)c(C)c3)c2C(N)=O)ccc1N1CCOCC1` [Compound 8, 5-((4-hydroxy-3,5-dimethylbenzyl)amino)-3-((3-methyl-4-morpholinophenyl)amino)-1H-pyrazole-4-carboxamide] are 50 to 100 nM, more than 1000 nM, “B (B represents 10<Kd(JAK2): Kd (RCK)<100)”, more than 1000 nM and “B (B represents 10<Kd (JAK3): Kd (RCK)<100)”.
The corresponding values for `Cc1cc(CNc2[nH]nc(Nc3ccc(-c4ccccn4)cc3)c2C(N)=O)cc(C)c1O` [Compound 9, 5-((4-hydroxy-3,5-dimethylbenzyl)amino)-3-((4-(pyridin-2-yl)phenyl)amino)-1H-pyrazole-4-carboxamide] are 50 to 100 nM, more than 1000 nM, “B (B represents 10<Kd(JAK2): Kd (RCK)<100)”, more than 1000 nM and “A (A represents Kd (JAK3): Kd (RCK)>100)”.
As for `Cc1cc(CNc2[nH]nc(Nc3ccc(N4CCN(C)CC4)cc3)c2C(N)=O)cc(C)c1O` [Compound 10, 5-((4-hydroxy-3,5-dimethylbenzyl)amino)-3-((4-(4-methylpiperazin-1-yl)phenyl)amino)-1H-pyrazole-4-carboxamide], the values for the Kd in assay [1], in assay [2] and in assay [3] were 50 to 100 nM, more than 1000 nM and more than 1000 nM, respectively. The “RCK:JAK2 selectivity ratio” value in assay [2] was “B (B represents 10<Kd(JAK2): Kd (RCK)<100)”. Besides, the “RCK:JAK3 selectivity ratio” value in assay [3] was “A (A represents Kd (JAK3): Kd (RCK)>100)”.
Take `Cc1cc(CNc2[nH]nc(Nc3ccc(N4CCOCC4)cn3)c2C(N)=O)cc(C)c1O` [Compound 11, 5-((4-hydroxy-3,5-dimethylbenzyl)amino)-3-((5-morpholinopyridin-2-yl)amino)-1H-pyrazole-4-carboxamide]: the Kd in assay [1] was in the range of 50 to 100 nM. In addition, in assay [2], the Kd is 100 to 1000 nM and the “RCK:JAK2 selectivity ratio” value is “C (C represents 1<Kd (JAK2): Kd (RCK)<10)”. Further, in assay [3], the Kd was more than 1000 nM and the “RCK:JAK3 selectivity ratio” value is “B (B represents 10<Kd (JAK3): Kd (RCK)<100)”.
Taken in the same sequence, the figures for `Cc1cc(Nc2n[nH]c(NCc3cc(C)c(O)c(C)c3)c2C(N)=O)cnc1N1CCOCC1` [Compound 12, 5-((4-hydroxy-3,5-dimethylbenzyl)amino)-3-((5-methyl-6-morpholinopyridin-3-yl)amino)-1H-pyrazole-4-carboxamide] were 100 to 1000 nM, more than 1000 nM, “B (B represents 10<Kd(JAK2): Kd (RCK)<100)”, more than 1000 nM and “B (B represents 10<Kd (JAK3): Kd (RCK)<100)”.
The corresponding values for `Cc1cc(Nc2n[nH]c(NCc3cc(C)c(O)c(C)c3)c2C(N)=O)cnc1N1CCN(C(C)C)CC1` [Compound 13, 5-((4-hydroxy-3,5-dimethylbenzyl)amino)-3-((6-(4-isopropylpiperazin-1-yl)-5-methylpyridin-3-yl)amino)-1H-pyrazole-4-carboxamide] are more than 1000 nM, more than 1000 nM, “B (B represents 10<Kd(JAK2): Kd (RCK)<100)”, more than 1000 nM and “B (B represents 10<Kd (JAK3): Kd (RCK)<100)”.
